PubChem BioAssay (NCI)
Several values for one entry are separate records, joined by “and”; a condition that tells them apart may be missing. Identical values can stand only once.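 Where inhibition never reached the appropriate level, the endpoint shown equals the highest concentration tested. Otherwise, values were interpolated linearly from a five-concentration, 48-hour dose response in 96-well plates. GI50 marks 50% less growth. The concentration for full growth arrest is given as TGI.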

Assays:
Test in all cases: inhibition of tumour cell growth, NCI panel, 48 h
[1] = test system: EKVX NSCLC
[2] = test system: HL-60(TB) leukemia
[3] = test system: LOX IMVI melanoma
[4] = test system: NCI-H460 lung
[5] = test system: TK-10 renal
[6] = test system: OVCAR-8 ovarian
[7] = test system: PC-3 prostate
[8] = test system: A498 renal
[9] = test system: UACC-257 melanoma
[10] = test system: SF-295 CNS

## COc1cc(CNc2nc3cc(N)cc(N)c3nc2-c2ccccc2)cc(OC)c1
[1]
  GI50: 2.8 µM
  TGI: 8.91 µM
[2]
  GI50: 3.84 µM
  TGI: > 100 µM
[3]
  GI50: 4.51 µM
  TGI: 81.7 µM
[4]
  GI50: 10.5 µM
  TGI: > 100 µM
[5]
  GI50: 24.6 µM
  TGI: 62.3 µM
[6]
  GI50: 2.8 µM
  TGI: 8.1 µM
[7]
  GI50: 3.05 µM
  TGI: 14.4 µM
[8]
  GI50: 90.8 µM
  TGI: > 100 µM
[9]
  TGI: > 100 µM
[10]
  GI50: 14.2 µM
  TGI: 35.1 µM

## CNC(=O)c1ncccc1Nc1nc(Nc2cc3c(cc2OC)CCCN3C(=O)CN(C)C)nc2[nH]ccc12
[1]
  GI50: 1.55 µM
  TGI: 6.52 µM
[2]
  GI50: 0.0921 µM
  TGI: 0.803 µM
[3]
  GI50: 1.26 µM
  TGI: 4.77 µM
[4]
  GI50: 0.613 µM
  TGI: 3.77 µM
[5]
  GI50: 2.22 µM
  TGI: 6.7 µM
[6]
  GI50: 1.25 µM
  TGI: 5.1 µM
[7]
  GI50: 1.5 µM
  TGI: 8.03 µM
[8]
  GI50: 1.18 µM
  TGI: 5.46 µM
[9]
  GI50: 0.395 µM
  TGI: 4.71 µM
[10]
  GI50: 1.82 µM
  TGI: 5.94 µM

## Cc1c(C(=N)C(C#N)C#N)c(=N)oc2c1ccc1ccccc12
[1]
  GI50: 4.45 µM
  TGI: > 100 µM
[2]
  GI50: 8.76 µM
  TGI: 85.8 µM
[3]
  GI50: 11.9 µM
  TGI: 38.2 µM
[4]
  GI50: 27.2 µM
  TGI: > 100 µM
[5]
  GI50: 30.5 µM
  TGI: > 100 µM
[6]
  GI50: 23.9 µM
  TGI: > 100 µM
[7]
  GI50: 29.5 µM
  TGI: > 100 µM
[8]
  GI50: 9.83 µM
  TGI: 96 µM
[9]
  GI50: 28.6 µM
  TGI: > 100 µM
[10]
  GI50: 33.9 µM
  TGI: > 100 µM

## CCN1C(=S)N(CC)C2C1NC(=S)N2/N=C/C=C/c1ccccc1OC (configuration not stated)
[1]
  GI50: 0.4 µM
  TGI: > 100 µM
[2]
  GI50: 0.229 µM
  TGI: 0.597 µM
[3]
  GI50: 0.488 µM
  TGI: 12.7 µM
[4]
  GI50: 0.335 µM
  TGI: > 33.4 µM
[5]
  GI50: 7.69 µM
  TGI: 98.9 µM
[6]
  GI50: 0.538 µM
  TGI: > 41.2 µM
[7]
  GI50: 0.29 µM
  TGI: > 100 µM
[8]
  GI50: 0.0831 µM
  TGI: 0.715 µM
[9]
  GI50: 21.8 µM
  TGI: > 100 µM
[10]
  GI50: 0.113 µM
  TGI: 9.18 µM

## CC(=O)ON1CCCC(P(=O)(OCOC(=O)C(C)(C)C)OCOC(=O)C(C)(C)C)C1=O (configuration not stated)
[1]
  GI50: 0.94 µM
  TGI: 11.1 µM
[2]
  GI50: 0.653 µM
  TGI: 2.87 µM
[3]
  GI50: 0.827 µM
  TGI: 15.3 µM
[4]
  GI50: 0.959 µM
  TGI: 4.71 µM
[5]
  GI50: 0.977 µM
  TGI: 6.89 µM
[6]
  GI50: 0.324 µM
[7]
  GI50: 1.23 µM
  TGI: 17.4 µM
[8]
  GI50: 0.314 µM
  TGI: 2.01 µM
[9]
  GI50: 2.41 µM
  TGI: 19.5 µM
[10]
  GI50: 2.37 µM
  TGI: 29 µM

## CC1=C(C(=O)Nc2ccccc2)C(c2ccc(N(C)C)cc2)C(C(=O)Nc2ccccc2)=C(C)N1
[1]
  TGI: > 100 µM
[2]
  TGI: 49.4 µM
[3]
  TGI: > 100 µM
[4]
  TGI: > 100 µM
[5]
  TGI: > 100 µM
[6]
  TGI: > 100 µM
[7]
  TGI: > 100 µM
[8]
  TGI: > 100 µM
[9]
  TGI: > 100 µM
[10]
  TGI: 50.2 µM

## Nc1nc2c(c3cnccc13)C(c1ccc(Cl)c(Cl)c1)Cc1cnccc1-2 (configuration not stated)
[1]
  GI50: 0.971 µM
  TGI: 17.5 µM
[2]
  GI50: 0.384 µM
  TGI: 2.34 µM
[3]
  GI50: 0.293 µM
  TGI: 11 µM
[4]
  GI50: 0.428 µM
  TGI: 3.99 µM
[5]
  GI50: 1.18 µM
  TGI: 9.48 µM
[6]
  GI50: 2.69 µM
  TGI: 15 µM
[7]
  GI50: 0.544 µM
  TGI: 12.8 µM
[8]
  GI50: 0.227 µM
  TGI: 1.01 µM
[9]
  GI50: 14.8 µM
  TGI: 29.1 µM
[10]
  GI50: 0.394 µM
  TGI: 4.76 µM

## O=C1/C(=C\c2ccccc2)CN(C(=O)CCN2CCCCC2)C/C1=C/c1ccccc1
[1]
  TGI: 10.6 µM
[2]
  TGI: 1.17 µM
[3]
  TGI: 0.842 µM
[4]
  TGI: 5.96 µM
[5]
  TGI: 10.9 µM
[6]
  TGI: 5.47 µM
[7]
  TGI: 3.25 µM
[8]
  TGI: 7.43 µM
[9]
  TGI: 3.52 µM
[10]
  TGI: 3.16 µM

## O=C1/C(=C/c2ccc(Cl)c(Cl)c2)CN(C(=O)CCN2CCC(=NO)CC2)C/C1=C\c1ccc(Cl)c(Cl)c1
[1]
  GI50: 1.31 µM
  TGI: 3.05 µM
[2]
  GI50: 1.48 µM
  TGI: 4.37 µM
[3]
  GI50: 0.256 µM
  TGI: 0.612 µM
[4]
  GI50: 0.933 µM
  TGI: 2.57 µM
[5]
  GI50: 1.61 µM
  TGI: 3.18 µM
[6]
  GI50: 0.651 µM
  TGI: 2.62 µM
[7]
  GI50: 0.545 µM
  TGI: 1.66 µM
[8]
  GI50: 1.44 µM
  TGI: 2.89 µM
[9]
  GI50: 1.74 µM
  TGI: 3.86 µM
[10]
  GI50: 1.05 µM
  TGI: 2.59 µM

## Cc1nn(-c2ccc(Cl)cc2)c2ncnc(N/N=C/c3ccccc3O)c12
[1]
  GI50: 0.96 µM and 0.993 µM
  TGI: 30.8 µM and > 100 µM
[2]
  GI50: 0.335 µM and 0.305 µM
  TGI: 40.7 µM
[3]
  GI50: 0.389 µM and 0.251 µM
  TGI: 11.9 µM and 10.2 µM
[4]
  GI50: 0.375 µM and 0.347 µM
  TGI: 3.14 µM and 5.67 µM
[5]
  GI50: 2.33 µM and 1.86 µM
  TGI: 63.4 µM and > 100 µM
[6]
  GI50: 0.42 µM and 0.361 µM
  TGI: 43.2 µM and > 100 µM
[7]
  GI50: 1.09 µM and 0.568 µM
  TGI: > 100 µM
[8]
  GI50: 12.3 µM and 3.23 µM
  TGI: 70.1 µM and 23.5 µM
[9]
  GI50: 2.68 µM and 1.31 µM
  TGI: 16.1 µM and 39.3 µM
[10]
  GI50: 0.841 µM and 1.12 µM
  TGI: 9.93 µM and 24.4 µM

## CCN(C)c1nc(N(C)CC)c2nc(N(C)CC)nc(N(C)CC)c2n1
[1]
  TGI: > 100 µM
[2]
  TGI: > 100 µM
[3]
  TGI: > 100 µM
[4]
  TGI: > 100 µM
[5]
  TGI: > 100 µM
[6]
  TGI: > 100 µM
[7]
  TGI: > 100 µM
[8]
  TGI: > 100 µM
[9]
  TGI: > 100 µM
[10]
  TGI: > 100 µM

## OC1(c2ccc(Cl)c(C(F)(F)F)c2)CCN(CCCC(c2ccc(F)cc2)c2ccc(F)cc2)CC1
[1]
  GI50: 1.47 µM
  TGI: 6.2 µM
[2]
  GI50: 1.01 µM
  TGI: 2.02 µM
[3]
  GI50: 0.821 µM
  TGI: 1.52 µM
[4]
  GI50: 1.23 µM
  TGI: 9.05 µM
[5]
  GI50: 0.89 µM
  TGI: 1.69 µM
[6]
  GI50: 0.823 µM
  TGI: 1.53 µM
[7]
  GI50: 0.857 µM
  TGI: 2.1 µM
[8]
  GI50: 0.515 µM
  TGI: 1.12 µM
[9]
  GI50: 0.826 µM
  TGI: 1.51 µM
[10]
  GI50: 0.833 µM
  TGI: 1.63 µM

## COC1N(C2CC(O)C(CO)O2)C(=O)NC(=O)C1(F)Br (configuration not stated)
[1]
  GI50: 19.9 µM
  TGI: 50 µM and > 100 µM
[2]
  GI50: 13.8 µM
  TGI: > 67 µM
[3]
  GI50: 4.47 µM
  TGI: 50 µM and > 100 µM
[4]
  GI50: 1.51 µM
  TGI: 50 µM and > 100 µM
[5]
  GI50: > 50 µM
  TGI: > 100 µM
[6]
  GI50: 22.5 µM
  TGI: 50 µM and > 100 µM
[7]
  TGI: > 100 µM
[8]
  GI50: 0.821 µM
  TGI: 50 µM and > 65 µM
[9]
  GI50: 42.8 µM
  TGI: 50 µM and > 100 µM
[10]
  GI50: 21.9 µM
  TGI: 50 µM and > 100 µM

## CCCCCOc1ccc(/C=N/Nc2cc(C)nc3ccc(Cl)cc23)cc1
[1]
  GI50: 1.67 µM
  TGI: 3.07 µM
[2]
  GI50: 1.64 µM
  TGI: 3.36 µM
[3]
  GI50: 1.69 µM
  TGI: 3.15 µM
[4]
  GI50: 1.95 µM
  TGI: 3.96 µM
[5]
  GI50: 1.77 µM
  TGI: 3.16 µM
[6]
  GI50: 1.98 µM
  TGI: 4.23 µM
[7]
  GI50: 1.61 µM
  TGI: 3.1 µM
[8]
  GI50: 1.19 µM
  TGI: 2.47 µM
[9]
  GI50: 1.72 µM
  TGI: 3.27 µM
[10]
  GI50: 1.77 µM
  TGI: 3.34 µM

## CN[C@@H](C)C(=O)N[C@H]1CN(S(=O)(=O)c2cccc(S(=O)(=O)N3CC[C@H]4CC[C@@H](C(=O)NC(c5ccccc5)c5ccccc5)N4C(=O)[C@@H](NC(=O)[C@H](C)NC)C3)c2)CC[C@H]2CC[C@@H](C(=O)NC(c3ccccc3)c3ccccc3)N2C1=O
[1]
  GI50: 25.2 µM
  TGI: > 74 µM
[2]
  GI50: 0.0317 µM
  TGI: 1.69 µM
[3]
  GI50: 14.8 µM
  TGI: 36.5 µM
[4]
  GI50: 20.2 µM
  TGI: 46.3 µM
[5]
  GI50: 55.9 µM
  TGI: > 100 µM
[6]
  GI50: 5.64 µM
  TGI: 26.8 µM
[7]
  GI50: 21.5 µM
  TGI: > 63.3 µM
[8]
  GI50: 32.6 µM
  TGI: > 67.7 µM
[9]
  GI50: 18 µM
  TGI: 50.2 µM
[10]
  GI50: 14.4 µM
  TGI: > 71.4 µM
